Assay results as given in PubChem BioAssay (NCI).
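Grown in 96-well plates, cells were treated for 48 hours with each compound at five concentrations. Insufficient inhibition: endpoint recorded as highest concentration tested. The concentration for full growth arrest is given as TGI.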

How the values were obtained:
Assay in all cases: NCI anticancer screen, dose series, 48 h
[1] = system: OVCAR-8 ovarian
[2] = system: BT-549 breast
[3] = system: MDA-MB-231 breast
[4] = system: MDA-MB-435
[5] = system: HCT-15 colon
[6] = system: EKVX NSCLC
[7] = system: MOLT-4 leukemia
[8] = system: OVCAR-5 ovarian
[9] = system: SK-MEL-2 melanoma
[10] = system: HCT-116 colon
[11] = system: HS 578T breast
[12] = system: SF-539 CNS
[13] = system: SNB-19 CNS
[14] = system: SR leukemia
[15] = system: HL-60(TB) leukemia
[16] = system: UO-31 renal
[17] = system: SF-268 CNS
[18] = system: U251 CNS
[19] = system: DU-145 prostate
[20] = system: NCI-H23 lung
[21] = system: PC-3 prostate
[22] = system: ACHN renal
[23] = system: SF-295 CNS
[24] = system: KM12 colon
[25] = system: NCI-H226 lung
[26] = system: RXF 393 renal
[27] = system: M14 melanoma
[28] = system: A498 renal
[29] = system: CAKI-1 renal
[30] = system: MCF7 breast
[31] = system: UACC-257 melanoma
[32] = system: SN12C renal
[33] = system: IGROV1 ovarian
[34] = system: SK-OV-3 ovarian
[35] = system: SK-MEL-5 melanoma
[36] = system: T-47D breast
[37] = system: MALME-3M melanoma
[38] = system: TK-10 renal
[39] = system: UACC-62 melanoma
[40] = system: HT29 colon
[41] = system: NCI/ADR-RES ovarian
[42] = system: RPMI-8226 leukemia
[43] = system: K-562 leukemia
[44] = system: CCRF-CEM leukemia
[45] = system: SW-620 colon
[46] = system: COLO 205 colon
[47] = system: OVCAR-3 ovarian
[48] = system: NCI-H460 lung
[49] = system: HOP-62 NSCLC
[50] = system: MDA-N
[51] = system: LOX IMVI melanoma
[52] = system: SNB-75 CNS
[53] = system: 786-0 renal
[54] = system: A549 NSCLC
[55] = system: OVCAR-4 ovarian
[56] = system: HOP-92 NSCLC
[57] = system: SK-MEL-28 melanoma
[58] = system: NCI-H522 lung
[59] = system: HCC-2998 colon

## CCOC(=O)c1cc(C2CCN(CC(C)CC)C2=S)c(C(=O)/C=C(/C)N)[nH]1 (stereo unspecified)
[1]
  TGI: > 50 µM
[2]
  TGI: > 50 µM
[3]
  TGI: > 50 µM
[4]
  TGI: > 50 µM
[5]
  TGI: > 50 µM
[6]
  TGI: > 50 µM
[7]
  TGI: > 50 µM
[8]
  TGI: > 50 µM
[9]
  TGI: > 50 µM
[10]
  TGI: > 50 µM
[11]
  TGI: > 50 µM
[12]
  TGI: > 50 µM
[13]
  TGI: > 50 µM
[14]
  TGI: > 50 µM
[15]
  TGI: > 50 µM
[16]
  TGI: > 50 µM
[17]
  TGI: > 50 µM
[18]
  TGI: > 50 µM
[19]
  TGI: > 50 µM
[20]
  TGI: > 50 µM
[21]
  TGI: > 50 µM
[22]
  TGI: > 50 µM
[23]
  TGI: > 50 µM
[24]
  TGI: > 50 µM
[25]
  TGI: > 50 µM
[26]
  TGI: > 50 µM
[27]
  TGI: > 50 µM
[28]
  TGI: > 50 µM
[29]
  TGI: > 50 µM
[30]
  TGI: > 50 µM
[31]
  TGI: > 50 µM
[32]
  TGI: > 50 µM
[33]
  TGI: > 50 µM
[34]
  TGI: > 50 µM
[35]
  TGI: > 50 µM
[36]
  TGI: > 50 µM
[37]
  TGI: > 50 µM
[38]
  TGI: > 50 µM
[39]
  TGI: > 50 µM
[40]
  TGI: > 50 µM
[41]
  TGI: > 50 µM
[42]
  TGI: > 50 µM
[43]
  TGI: > 50 µM
[44]
  TGI: > 50 µM
[45]
  TGI: > 50 µM
[46]
  TGI: > 50 µM
[47]
  TGI: > 50 µM
[48]
  TGI: > 50 µM
[49]
  TGI: > 50 µM
[50]
  TGI: > 50 µM
[51]
  TGI: > 50 µM
[52]
  TGI: > 50 µM
[53]
  TGI: > 50 µM

## CN(C)c1ccc2nc3c(C(=O)O)cc(=O)c(O)c-3oc2c1
[1]
  TGI: > 100 µM
[2]
  TGI: 42.8 µM
[3]
  TGI: > 100 µM
[4]
  TGI: 54.9 µM
[5]
  TGI: > 100 µM
[6]
  TGI: 81 µM
[7]
  TGI: 51.8 µM
[8]
  TGI: > 100 µM
[9]
  TGI: 40.2 µM
[10]
  TGI: 80.1 µM
[11]
  TGI: > 100 µM
[54]
  TGI: > 100 µM
[12]
  TGI: 69.3 µM
[13]
  TGI: 89.8 µM
[14]
  TGI: 50.1 µM
[15]
  TGI: 72.3 µM
[16]
  TGI: 80.1 µM
[17]
  TGI: > 100 µM
[55]
  TGI: > 100 µM
[18]
  TGI: > 100 µM
[19]
  TGI: > 100 µM
[20]
  TGI: 33.6 µM
[21]
  TGI: > 100 µM
[22]
  TGI: > 100 µM
[23]
  TGI: > 100 µM
[24]
  TGI: > 100 µM
[56]
  TGI: > 100 µM
[25]
  TGI: > 100 µM
[26]
  TGI: 76.3 µM
[27]
  TGI: 49.8 µM
[28]
  TGI: > 100 µM
[29]
  TGI: > 100 µM
[30]
  TGI: 56.5 µM
[57]
  TGI: > 100 µM
[31]
  TGI: 32.3 µM
[32]
  TGI: 64.6 µM
[33]
  TGI: > 100 µM
[34]
  TGI: > 100 µM
[35]
  TGI: 29.3 µM
[36]
  TGI: 47.4 µM
[37]
  TGI: 31.7 µM
[38]
  TGI: 47.5 µM
[39]
  TGI: 46 µM
[40]
  TGI: > 100 µM
[58]
  TGI: 31.9 µM
[41]
  TGI: 85.7 µM
[42]
  TGI: 95.2 µM
[43]
  TGI: 74.8 µM
[44]
  TGI: 57.8 µM
[45]
  TGI: > 100 µM
[46]
  TGI: 60 µM
[47]
  TGI: 60.8 µM
[48]
  TGI: 66 µM
[49]
  TGI: > 100 µM
[50]
  TGI: 55.5 µM
[51]
  TGI: > 100 µM
[52]
  TGI: 60 µM
[53]
  TGI: 82.7 µM

## O=C1c2ccccc2C(=O)c2c(NCCNC(=O)C3CCCN3)ccc(NCCNC(=O)C3CCCN3)c21 (stereo unspecified)
[1]
  TGI: 94.3 µM
[2]
  TGI: > 100 µM
[3]
  TGI: > 100 µM
[4]
  TGI: > 100 µM
[5]
  TGI: > 100 µM
[6]
  TGI: > 100 µM
[7]
  TGI: 84.2 µM
[8]
  TGI: > 100 µM
[9]
  TGI: > 100 µM
[10]
  TGI: 27.5 µM
[11]
  TGI: > 100 µM
[54]
  TGI: > 100 µM
[12]
  TGI: > 100 µM
[13]
  TGI: > 100 µM
[14]
  TGI: 66.8 µM
[15]
  TGI: > 100 µM
[16]
  TGI: > 100 µM
[17]
  TGI: > 100 µM
[55]
  TGI: > 100 µM
[18]
  TGI: > 100 µM
[19]
  TGI: > 100 µM
[20]
  TGI: > 100 µM
[21]
  TGI: > 100 µM
[22]
  TGI: > 100 µM
[23]
  TGI: > 100 µM
[24]
  TGI: 49.8 µM
[56]
  TGI: > 100 µM
[25]
  TGI: > 100 µM
[27]
  TGI: > 100 µM
[29]
  TGI: > 100 µM
[30]
  TGI: > 100 µM
[57]
  TGI: > 100 µM
[31]
  TGI: > 100 µM
[32]
  TGI: > 100 µM
[33]
  TGI: > 100 µM
[34]
  TGI: > 100 µM
[35]
  TGI: > 100 µM
[36]
  TGI: > 100 µM
[37]
  TGI: > 100 µM
[38]
  TGI: > 100 µM
[39]
  TGI: > 100 µM
[40]
  TGI: > 100 µM
[58]
  TGI: 65.2 µM
[41]
  TGI: > 100 µM
[59]
  TGI: > 100 µM
[42]
  TGI: 58.8 µM
[43]
  TGI: 52.2 µM
[44]
  TGI: > 100 µM
[45]
  TGI: > 100 µM
[46]
  TGI: > 100 µM
[47]
  TGI: > 100 µM
[49]
  TGI: > 100 µM
[50]
  TGI: > 100 µM
[51]
  TGI: 1.58 µM
[52]
  TGI: > 100 µM
[53]
  TGI: 2.09 µM

## COc1ccc(-n2c3c(c4cc(O)ccc42)C(=O)c2ccccc2C3=O)cc1
[1]
  TGI: 13.6 µM
[2]
  TGI: 31.5 µM
[3]
  TGI: 13.6 µM
[4]
  TGI: > 100 µM
[5]
  TGI: > 100 µM
[6]
  TGI: 43 µM
[7]
  TGI: > 100 µM
[8]
  TGI: > 100 µM
[9]
  TGI: > 100 µM
[10]
  TGI: 1.25 µM
[11]
  TGI: > 100 µM
[54]
  TGI: > 100 µM
[12]
  TGI: 11.5 µM
[13]
  TGI: > 100 µM
[14]
  TGI: 56.9 µM
[15]
  TGI: > 100 µM
[16]
  TGI: > 100 µM
[17]
  TGI: 14.8 µM
[55]
  TGI: > 100 µM
[19]
  TGI: > 100 µM
[20]
  TGI: > 100 µM
[21]
  TGI: 87.3 µM
[22]
  TGI: 56.7 µM
[23]
  TGI: 17.6 µM
[24]
  TGI: > 100 µM
[56]
  TGI: 47.5 µM
[26]
  TGI: 18 µM
[27]
  TGI: > 100 µM
[28]
  TGI: 22.5 µM
[29]
  TGI: > 100 µM
[30]
  TGI: > 100 µM
[57]
  TGI: > 100 µM
[31]
  TGI: > 100 µM
[32]
  TGI: 92.9 µM
[33]
  TGI: 30.8 µM
[34]
  TGI: 2.73 µM
[35]
  TGI: > 100 µM
[36]
  TGI: > 100 µM
[37]
  TGI: > 100 µM
[38]
  TGI: 31.1 µM
[39]
  TGI: 25.6 µM
[40]
  TGI: 18.6 µM
[58]
  TGI: > 100 µM
[41]
  TGI: 24.9 µM
[42]
  TGI: > 100 µM
[43]
  TGI: > 100 µM
[45]
  TGI: > 100 µM
[46]
  TGI: > 100 µM
[47]
  TGI: 27.2 µM
[48]
  TGI: > 100 µM
[49]
  TGI: 12.7 µM
[50]
  TGI: > 100 µM
[51]
  TGI: 58 µM
[53]
  TGI: 11.5 µM
